Values after ≈ are worked out from the molar mass of the structure shown.
Columns and labels:
[1] = system: Escherichia coli 57R/W677; assay: MIC, agar dilution method, pH 7.2; type: cell-based; conditions: 57R/W677, pH 7.2, read-out: Minimum inhibition concentration (MIC)
Method: (§1) Measurement was carried out according to the agar dilution method, using a medium of pH 8.0, or the Japanese Antibiotic Medicament Standard, using a medium of pH 7.2 Units are in mcg/ml.
(§2) **1: gentamicin, producing adenylsynthetase.

[2] = system: Klebsiella pneumoniae 3020 Y-60; assay: MIC, agar dilution method, pH 7.2; type: cell-based; conditions: 3020Y60; pH 7.2; Klebsiella pneumoniae 3020 Y-60; 1**: gentamicin, producing adenylsynthetase; read-out: Minimum inhibition concentration (MIC)
Method: as §1, §2

[3] = system: Escherichia coli R12 Z-338; assay: MIC, agar dilution method, pH 7.2; type: cell-based; conditions: R12Z338, pH 7.2, E. coli R12 Z-338, 1**: gentamicin, producing adenylsynthetase, read-out: Minimum inhibition concentration (MIC)
Method: as §1, §2

Escherichia coli 76-2 = assay: MIC, agar dilution method, pH 7.2; type: cell-based; conditions: Escherichia coli, 762, pH 7.2, read-out: Minimum inhibition concentration (MIC)
Method: as §1, §2

Escherichia coli NIHTC-2 = assay: MIC, agar dilution method, pH 7.2; type: cell-based; conditions: Escherichia coli, NIHTC2, pH 7.2, read-out: Minimum inhibition concentration (MIC)
Method: as §1

[4] = system: Pseudomonas aeruginosa BMH# 1; assay: MIC, agar dilution method, pH 7.2; type: cell-based; conditions: Pseudomonas aeruginosa, pH 7.2, read-out: Minimum inhibition concentration (MIC)
Method: as §1

[5] = system: Klebsiella pneumoniae KY4274; assay: MIC, agar dilution method, pH 7.2; type: cell-based; conditions: Klebsiella pneumoniae, KY4274, pH 7.2, read-out: Minimum inhibition concentration (MIC)
Method: as §1

[6] = system: Pseudomonas aeruginosa UCLA 4184; assay: MIC, agar dilution method, pH 7.2; type: cell-based; conditions: UCLA4184; pH 7.2; Pseudomonas aeruginosa UCLA 4184; read-out: Minimum inhibition concentration (MIC)
Method: as §1

[7] = system: Staphylococcus aureus Smith (A); assay: MIC, agar dilution method, pH 7.2; type: cell-based; conditions: pH 7.2; Staphylococcus aureus Smith (A); read-out: Minimum inhibition concentration (MIC)
Method: as §1

[8] = system: Eschericihia coli GN2411-5; assay: MIC, agar dilution method, pH 7.2; type: cell-based; conditions: Escherichia coli, GN2411, pH 7.2, read-out: Minimum inhibition concentration (MIC)
Method: as §1

[9] = system: Salmonella enteritidis G-14; assay: MIC, agar dilution method, pH 7.2; type: cell-based; conditions: Salmonella enterica, ENTERITIDIS, pH 7.2, read-out: Minimum inhibition concentration (MIC)
Method: as §1

Shigella sonnei ATCC9290 = assay: MIC, agar dilution method, pH 7.2; type: cell-based; conditions: read-out: Minimum inhibition concentration (MIC)
Method: as §1

Proteus vulgaris JJ = assay: MIC, agar dilution method, pH 7.2; type: cell-based; conditions: Proteus vulgaris, pH 7.2, read-out: Minimum inhibition concentration (MIC)
Method: as §1

[10] = system: Staphylococcus aureus 209-P; assay: MIC, agar dilution method, pH 7.2; type: cell-based; conditions: pH 7.2; Staphylococcus aureus 209-P; read-out: Minimum inhibition concentration (MIC)
Method: as §1

[11] = system: Staphylococcus a ureus 226; assay: MIC, agar dilution method, pH 7.2; type: cell-based, Staphylococcus aureus; conditions: pH 7.2; Staphylococcus aureus 226; read-out: Minimum inhibition concentration (MIC)
Method: as §1

Bacillus subtilis KY4273 = assay: MIC, agar dilution method, pH 8.0; type: cell-based; conditions: pH 8.0; Bacillus subtilis KY4273; read-out: Minimum inhibition concentration (MIC), BS
Method: as §1
B.S.: Bacillus subtilis KY4273

[12] = system: Escherichia coli R20 KY8349; assay: MIC, agar dilution method, pH 7.2; type: cell-based; conditions: R20KY8349, pH 7.2, read-out: Minimum inhibition concentration (MIC)
Method: as §1
5: neomycin, producing phosphotransferase type I.

[13] = system: Klebsiella pneumoniae KY4275 ATCC10031; assay: MIC, agar dilution method, pH 8.0; type: cell-based; conditions: ATCC10031; pH 8.0; Klebsiella pneumoniae KY4275; read-out: Minimum inhibition concentration (MIC), KP
Method: as §1
K.P.: Klebsiella pneumoniae KY4275 ATCC10031.

[14] = system: Salmonella typhosa KY4278 ATCC9992; assay: MIC, agar dilution method, pH 8.0; type: cell-based; conditions: Salmonella enterica, pH 8, read-out: Minimum inhibition concentration (MIC), ST
Method: as §1
S.T.: Salmonella typhosa KY4278 ATCC9992

Eschericihia coli 3100 = assay: MIC, agar dilution method, pH 7.2; type: cell-based, Escherichia coli; conditions: Escherichia coli; pH 7.2; E. coli 3100; read-out: Minimum inhibition concentration (MIC)
Method: as §1

[15] = system: Eschericia coli KY4271 ATCC26; assay: MIC, agar dilution method, pH 8.0; type: cell-based; conditions: Escherichia coli, ATCC26; pH 8.0; E. coli KY4271; read-out: Minimum inhibition concentration (MIC), EC
Method: as §1
E.C.: Eschericia coli KY4271 ATCC26

[16] = system: Escherichia coli R19 KY8348; assay: MIC, agar dilution method, pH 7.2; type: cell-based; conditions: R19KY8348, pH 7.2, E. coli R19 KY8348, 4**: gentamicin, producing acetyltransferase type I, read-out: Minimum inhibition concentration (MIC)
Method: as §1
(§3) 4: gentamicin, producing acetyltransferase type I.

[17] = system: Pseudomonas aeruginosa R4 KY8511; assay: MIC, agar dilution method, pH 7.2; type: cell-based; conditions: R4KY8511, pH 7.2, P. aeruginosa R4 KY8511, 4**: gentamicin, producing acetyltransferase type I, read-out: Minimum inhibition concentration (MIC)
Method: as §1, §3

Serratia marcescens 1065 = assay: MIC, agar dilution method, pH 7.2; type: cell-based; conditions: Serratia marcescens, 1065, pH 7.2, read-out: Minimum inhibition concentration (MIC)
Method: as §1
(§4) 3: kanamycin, producing acetyltransferase.

[18] = system: Escherichia coli R17 Z343; assay: MIC, agar dilution method, pH 7.2; type: cell-based; conditions: R17Z343, pH 7.2, read-out: Minimum inhibition concentration (MIC)
Method: as §1, §4

[19] = system: Pseudomonas aeruginosa R9 KY8516; assay: MIC, agar dilution method, pH 7.2; type: cell-based; conditions: R9KY8516, pH 7.2, P. aeruginosa R9 KY8516, 3**: kanamycin, producing acetyltransferase, read-out: Minimum inhibition concentration (MIC)
Method: as §1, §4

[20] = system: Shigella sonnei KY4281 ATCC9290; assay: MIC, agar dilution method, pH 8.0; type: cell-based; conditions: ATCC9290; pH 8.0; Shigella sonnei KY4281; read-out: Minimum inhibition concentration (MIC), SS
Method: as §1

[21] = system: Proteus vulgaris KY4277 ATCC6897; assay: MIC, agar dilution method, pH 8.0; type: cell-based; conditions: ATCC6897; pH 8.0; Proteus vulgaris KY4277; read-out: Minimum inhibition concentration (MIC), PV
Method: as §1

[22] = system: Escherichia coli R18 KY8321; assay: MIC, agar dilution method, pH 7.2; type: cell-based; conditions: R18KY8321, E. coli R18 KY8321, 2**: gentamicin, producing adenylsynthetase and neomycin phosphotransferase type II, read-out: Minimum inhibition concentration (MIC)
Method: as §1
2: gentamicin, producing adenylsynthetase and neomycin phosphotransferase

CO[C@H]1[C@@H](O)[C@H](N)[C@@H](O[C@H]2O[C@H]([C@H](C)N)CC[C@H]2N)[C@H](O)[C@@H]1N(C)C[C@@H](O)CCN [Compound 27, 4-N-[(S)-4-amino-2-hydroxybutyl]fortimicin B]
MIC [1]: 12.5 µg/mL (≈ 28.7 µM) | MIC [2]: 12.5 µg/mL (≈ 28.7 µM) | MIC [3]: 12.5 µg/mL (≈ 28.7 µM) | MIC (Escherichia coli 76-2): 6.25 µg/mL (≈ 14.3 µM) | MIC (Escherichia coli NIHTC-2): 3.12 µg/mL (≈ 7.16 µM) | MIC [4]: 6.25 µg/mL (≈ 14.3 µM) | MIC [5]: 3.12 µg/mL (≈ 7.16 µM) | MIC [6]: 25 µg/mL (≈ 57.4 µM) | MIC [7]: 0.4 µg/mL (≈ 0.918 µM) | MIC [8]: 6.25 µg/mL (≈ 14.3 µM) | MIC [9]: 3.12 µg/mL (≈ 7.16 µM) | MIC (Shigella sonnei ATCC9290): 3.12 µg/mL (≈ 7.16 µM) | MIC (Proteus vulgaris JJ): 3.12 µg/mL (≈ 7.16 µM) | MIC [10]: 0.4 µg/mL (≈ 0.918 µM) | MIC [11]: 0.4 µg/mL (≈ 0.918 µM) | MIC (Bacillus subtilis KY4273): 0.04 µg/mL (≈ 0.0918 µM) | MIC [12]: 1.25 µg/mL (≈ 2.87 µM) | MIC [13]: 0.32 µg/mL (≈ 0.735 µM) | MIC [14]: 0.16 µg/mL (≈ 0.367 µM) | MIC (Eschericihia coli 3100): 12.5 µg/mL (≈ 28.7 µM) | MIC [15]: 0.16 µg/mL (≈ 0.367 µM) | MIC [16]: > 100 µg/mL | MIC [17]: > 100 µg/mL | MIC (Serratia marcescens 1065): 6.25 µg/mL (≈ 14.3 µM) | MIC [18]: 3.12 µg/mL (≈ 7.16 µM) | MIC [19]: 25 µg/mL (≈ 57.4 µM) | MIC [20]: 1.25 µg/mL (≈ 2.87 µM) | MIC [21]: 0.32 µg/mL (≈ 0.735 µM) | MIC [22]: 6.25 µg/mL (≈ 14.3 µM)

— patent US4220755A, “Fortimicin B derivatives and process for production thereof” (Abbott Laboratories, priority 1976, dated 1980)
